Experimental findings from patent US6525059B1, “Substituted pyrazoles as p38 kinase inhibitors” (G. D. Searle & Company, priority 1998, dated 2003) are described below.

One experiment relates to TNF-α. Description: LPS stimulation of TNF production by U937 cells. In kind it is cell-based, human. As to conditions: Homo sapiens; for inhibition at 1 µM: U-937, @ 1.0 uM, read-out: U937 Cell % inhib @ conc. Summed up:
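PMA-differentiated human U937 cells (20 ng/ml PMA, 24 h, then 24-48 h rest) at 2 million cells/ml, 0.1% DMSO final, stimulated with E. coli LPS (100 ng/ml final) for 4 h at 37° C. TNF-α in medium measured by ELISA; IC50 in μM.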

The target in the next experiment is T1, human p38 kinase alpha (Homo sapiens, UniProt Q16539).
T1 construct: The coding region of the human p38a cDNA was obtained by PCR-amplification from RNA isolated from the human monocyte cell line THP.1; GST (N); made in house; host or cells: E. coli DH10B
The experiment is described as follows: p38 kinase in vitro assay, phosphorylation of biotinylated PHAS-I with gamma 32P-ATP. The experiment is classed as biochemical. The following applies: for inhibition at 1 µM / inhibition at 10 µM: read-out: P38 alpha kinase % inhib @ conc. Summed up: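 MKK6-activated human p38α phosphorylates biotinylated PHAS-I with γ-32P-ATP in 25 mM HEPES pH 7.5, 10 mM Mg acetate, 50 μM unlabeled ATP, 1% DMSO, 30 °C for 1 h or overnight. Compounds at 100–0.001 μM (10-fold steps, triplicate); substrate captured on streptavidin filter plates and counted by scintillation.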

Where [1] appears, read: read-out: P38 alpha kinase IC50.
The mark [2] stands for this setting: U-937, TNF production, LPS-stimulated human U937 cells, read-out: U937 Cell IC50.

Read-outs that look alike come from different tables or passages of the source.

T1 sequence (Q16539 whole entry): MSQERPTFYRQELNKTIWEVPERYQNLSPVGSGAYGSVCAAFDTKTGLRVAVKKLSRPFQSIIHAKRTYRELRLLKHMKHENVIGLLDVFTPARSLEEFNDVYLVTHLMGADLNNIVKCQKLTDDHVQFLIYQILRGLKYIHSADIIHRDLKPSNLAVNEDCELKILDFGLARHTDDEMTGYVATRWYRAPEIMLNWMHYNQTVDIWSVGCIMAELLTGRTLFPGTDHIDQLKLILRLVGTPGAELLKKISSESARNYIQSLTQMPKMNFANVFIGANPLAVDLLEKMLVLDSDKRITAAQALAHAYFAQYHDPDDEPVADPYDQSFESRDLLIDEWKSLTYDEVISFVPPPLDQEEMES

By IC50 is commonly meant the midpoint of a concentration-inhibition curve. As to `Cc1cccc(C)c1NC(=O)N[C@H](C)c1[nH]nc(-c2ccc(F)cc2)c1-c1ccncc1` [Example B-0411], in the experiment with TNF-α, the inhibition at 1 µM is 50%. In addition, on human p38 kinase alpha (setting [1]), the IC50 was 620 nM.
Regarding `C[C@@H](NS(=O)(=O)c1cc(Cl)c(Cl)s1)c1[nH]nc(-c2ccc(F)cc2)c1-c1ccncc1` [Example B-0452], the inhibition at 1 µM in the experiment on TNF-α is 75%. In addition, the IC50 at human p38 kinase alpha (setting [1]) was found to be 700 nM.
On to `Cc1ccc(C)c(S(=O)(=O)N[C@H](C)c2[nH]nc(-c3ccc(F)cc3)c2-c2ccncc2)c1` [Example B-0468], for which, in the experiment on TNF-α, the inhibition at 1 µM is 93%. The concentration for half-maximal inhibition (IC50) on human p38 kinase alpha (setting [1]) was found to be 31 nM.
For the compound `O=C(NCc1[nH]nc(-c2ccc(F)cc2)c1-c1ccncc1)c1ccncc1` [Example B-0199], the inhibition at 1 µM in the experiment on TNF-α stood at 3%. In addition, on human p38 kinase alpha (setting [1]), the 50% inhibitory concentration (IC50) was 1340 nM.
`C[C@@H](NC(=O)c1cc2ccccc2s1)c1[nH]nc(-c2ccc(F)cc2)c1-c1ccncc1` [Example B-0496]: in the experiment with TNF-α, the inhibition at 1 µM worked out at 16%. Moreover, at human p38 kinase alpha (setting [1]), the IC50 came out at 830 nM.
Consider `Cc1cc(C)c(NC(=O)NCc2[nH]nc(-c3ccc(F)cc3)c2-c2ccncc2)c(C)c1` [Example B-0186], for which the inhibition at 1 µM with TNF-α came out at 25%; at human p38 kinase alpha, 40%.
With `C[C@@H](NC(=O)N[C@H](C)c1[nH]nc(-c2ccc(F)cc2)c1-c1ccncc1)c1ccccc1` [Example B-0414], the inhibition at 1 µM in the experiment on TNF-α was found to be 25%. For the same compound, the IC50 at human p38 kinase alpha (setting [1]) stood at 540 nM.
For the compound `CC(C)OC(=O)N[C@H](C)c1[nH]nc(-c2ccc(F)cc2)c1-c1ccncc1` [Example B-0429], the inhibition at 1 µM with TNF-α was determined as 45%. In addition, on human p38 kinase alpha (setting [1]), the IC50 amounted to 270 nM.
As for `Cc1ccc(S(=O)(=O)NCc2[nH]nc(-c3ccc(F)cc3)c2-c2ccncc2)cc1` [Example B-0118], the results for the concentration for half-maximal inhibition (IC50) in the experiment on TNF-α (setting [2]) and at human p38 kinase alpha (setting [1]) were 1290 nM and 1180 nM, respectively.
Turning to `C[C@@H](NC(=O)c1c(F)cccc1C(F)(F)F)c1[nH]nc(-c2ccc(F)cc2)c1-c1ccncc1` [Example B-0509], in the experiment on TNF-α, the inhibition at 1 µM came to 86%. The IC50 at human p38 kinase alpha (setting [1]) came to 100 nM.
Take `Cc1onc(-c2ccccc2Cl)c1C(=O)NCc1[nH]nc(-c2ccc(F)cc2)c1-c1ccncc1` [Example B-0056]: the inhibition at 1 µM in the experiment with TNF-α stood at 21%; on human p38 kinase alpha, 96%.
As for `Cc1onc(-c2c(F)cccc2Cl)c1C(=O)NCc1[nH]nc(-c2ccc(F)cc2)c1-c1ccncc1` [Example B-0055], in the experiment on TNF-α (setting [2]), the IC50 was over 1000 nM. Moreover, the inhibition at 1 µM at human p38 kinase alpha stood at 93%.
Regarding `COc1cc(NC(=O)NCc2[nH]nc(-c3ccc(F)cc3)c2-c2ccncc2)cc(OC)c1OC` [Example B-0191], the figures for the inhibition at 1 µM in the experiment on TNF-α and at human p38 kinase alpha were 29% and 40%, respectively.
Regarding `O=C(NCc1[nH]nc(-c2ccc(F)cc2)c1-c1ccncc1)c1ccccc1Br` [Example B-0301], the inhibition at 1 µM in the experiment with TNF-α was found to be 50%. Also, the half-maximal inhibitory concentration (IC50) on human p38 kinase alpha (setting [1]) came out at 190 nM.
Consider `C[C@@H](NS(=O)(=O)c1ccccc1C#N)c1[nH]nc(-c2ccc(F)cc2)c1-c1ccncc1` [Example B-0450], for which the inhibition at 1 µM in the experiment on TNF-α worked out at 81%. Also, the IC50 on human p38 kinase alpha (setting [1]) was determined as 260 nM.
Turning to `COC(=O)c1ccccc1S(=O)(=O)NCc1[nH]nc(-c2ccc(F)cc2)c1-c1ccncc1` [Example B-0108], the IC50 with TNF-α (setting [2]) stood at 4850 nM. In addition, at human p38 kinase alpha, the inhibition at 1 µM came out at 61%.
Regarding `COc1ccc(S(=O)(=O)NCc2[nH]nc(-c3ccc(F)cc3)c2-c2ccncc2)c([N+](=O)[O-])c1` [Example B-0141], the inhibition at 1 µM was 10% in the experiment with TNF-α and 78% on human p38 kinase alpha.
On to `C[C@@H](NS(=O)(=O)c1ccc(S(=O)(=O)c2ccccc2)s1)c1[nH]nc(-c2ccc(F)cc2)c1-c1ccncc1` [Example B-0488], for which the inhibition at 1 µM in the experiment on TNF-α was found to be 88%. For the same compound, the 50% inhibitory concentration (IC50) on human p38 kinase alpha (setting [1]) was found to be 620 nM.
In the case of `O=S(=O)(/C=C\c1ccccc1)NCc1[nH]nc(-c2ccc(F)cc2)c1-c1ccncc1` [Example B-0119], in the experiment on TNF-α (setting [2]), the IC50 turned out to be 2780 nM. Further, the inhibition at 10 µM on human p38 kinase alpha came to 89%.
Take `C[C@@H](NC(=O)c1cccc(Cl)c1Cl)c1[nH]nc(-c2ccc(F)cc2)c1-c1ccncc1` [Example B-0504]: the inhibition at 1 µM with TNF-α amounted to 43%. Further, the half-maximal inhibitory concentration (IC50) on human p38 kinase alpha (setting [1]) is 400 nM.
As for `CC(Oc1ccccc1)C(=O)NCc1[nH]nc(-c2ccc(F)cc2)c1-c1ccncc1` (centres unmarked) [Example B-0202], the IC50 in the experiment with TNF-α (setting [2]) stood at 2260 nM; on human p38 kinase alpha (setting [1]) it was 550 nM.
Turning to `O=C(NCc1[nH]nc(-c2ccc(F)cc2)c1-c1ccncc1)c1cc(F)c(F)cc1F` [Example B-0296], in the experiment on TNF-α, the inhibition at 1 µM was found to be 36%. Besides, the concentration for half-maximal inhibition (IC50) on human p38 kinase alpha (setting [1]) is 8030 nM.
For the compound `CS(=O)(=O)NCc1[nH]nc(-c2ccc(F)cc2)c1-c1ccncc1` [Example B-0107], the figures for the IC50 in the experiment with TNF-α (setting [2]) and on human p38 kinase alpha (setting [1]) were 5000 nM and 270 nM, respectively.
Regarding `CC(=O)Nc1ccc(S(=O)(=O)NCc2[nH]nc(-c3ccc(F)cc3)c2-c2ccncc2)cc1` [Example B-0223], the inhibition at 1 µM in the experiment with TNF-α was determined as 1%. Moreover, at human p38 kinase alpha (setting [1]), the IC50 is 200 nM.
On to `CCOC(=O)c1cccc(NC(=O)NCc2[nH]nc(-c3ccc(F)cc3)c2-c2ccncc2)c1` [Example B-0154], for which the inhibition at 1 µM in the experiment with TNF-α came out at 14%. For the same compound, the inhibition at 10 µM on human p38 kinase alpha was 65%.
`CCCCOc1ccc(S(=O)(=O)N[C@H](C)c2[nH]nc(-c3ccc(F)cc3)c2-c2ccncc2)cc1` [Example B-0456]: the inhibition at 1 µM in the experiment with TNF-α was determined as 67%. For the same compound, the IC50 on human p38 kinase alpha (setting [1]) was determined as 1810 nM.
Regarding `O=C(NCc1[nH]nc(-c2ccc(F)cc2)c1-c1ccncc1)c1c(F)cccc1C(F)(F)F` [Example B-0284], the inhibition at 1 µM with TNF-α came to 65%. For the same compound, the IC50 at human p38 kinase alpha (setting [1]) amounted to 83 nM.
In the case of `O=S(=O)(NCc1[nH]nc(-c2ccc(F)cc2)c1-c1ccncc1)c1cccc(Cl)c1Cl` [Example B-0230], the inhibition at 1 µM in the experiment on TNF-α stood at 30%. Moreover, the IC50 on human p38 kinase alpha (setting [1]) was 41 nM.
On to `CC(C)S(=O)(=O)N[C@H](C)c1[nH]nc(-c2ccc(F)cc2)c1-c1ccncc1` [Example B-0387], for which, in the experiment with TNF-α, the inhibition at 1 µM came to 52%. The IC50 at human p38 kinase alpha (setting [1]) worked out at 410 nM.
As for `Cc1c(Cl)cccc1S(=O)(=O)NCc1[nH]nc(-c2ccc(F)cc2)c1-c1ccncc1` [Example B-0124], the inhibition at 1 µM stood at 15% in the experiment on TNF-α and 73% at human p38 kinase alpha.
Take `CCN(CC)CCn1cc(-c2ccnc(NCc3ccc(F)cc3)c2)c(-c2ccc(F)cc2)n1` [Example A-279, 4-[1-[2-(diethylamino)ethyl]-3-(4-fluorophenyl)-1H-pyrazol-4-yl]-N-[(4-fluorophenyl)methyl]-2-pyridinamine]: the half-inhibitory concentration (IC50) in the experiment with TNF-α (U-937, LPS-stimulated U937 cells, read-out: U937 IC50) was determined as 700 nM; at human p38 kinase alpha (p38α in vitro, PHAS-I assay procedure, read-out: p38^1 IC50) it was 5 nM.
As to `COC(=O)CCCC(=O)NCc1[nH]nc(-c2ccc(F)cc2)c1-c1ccncc1` [Example B-0078], the inhibition at 1 µM in the experiment with TNF-α came out at 20%; on human p38 kinase alpha, 80%.
As for `O=C(NCc1[nH]nc(-c2ccc(F)cc2)c1-c1ccncc1)c1cccc(Cl)c1Cl` [Example B-0279], the inhibition at 1 µM with TNF-α is 33%. Besides, on human p38 kinase alpha (setting [1]), the half-maximal inhibitory concentration (IC50) stood at 1390 nM.
Consider `C=CCOC(=O)N[C@H](C)c1[nH]nc(-c2ccc(F)cc2)c1-c1ccncc1` [Example B-0357], for which the half-inhibitory concentration (IC50) with TNF-α (setting [2]) came out at 660 nM; at human p38 kinase alpha (setting [1]), 1460 nM.
For `O=S(=O)(NCc1[nH]nc(-c2ccc(F)cc2)c1-c1ccncc1)c1cccc2ccccc12` [Example B-0111], in the experiment with TNF-α (setting [2]), the IC50 was over 1000 nM. Moreover, the inhibition at 1 µM on human p38 kinase alpha is 57%.
Consider `C[C@@H](NS(=O)(=O)c1ccc(Cl)c(Cl)c1)c1[nH]nc(-c2ccc(F)cc2)c1-c1ccncc1` [Example B-0465], for which the inhibition at 1 µM with TNF-α stood at 98%. Besides, at human p38 kinase alpha (setting [1]), the IC50 came to 84 nM.
As to `O=C(NCc1[nH]nc(-c2ccc(F)cc2)c1-c1ccncc1)c1sc2ccccc2c1Cl` [Example B-0058], the inhibition at 1 µM in the experiment with TNF-α was determined as 18%; at human p38 kinase alpha, 79%.
